Assays:
Format in all cases: in vivo
Digitaria sanguinalis [1] = experiment: Pre-emergence treatment, herbicidal efficacy on large crabgrass; details: 4 weeks after spraying, scale 0 to 10
Procedure: (§1) A rectangular plastic pot having a surface area of 300 cm^2 was filled with sandy loam soil and mixed bed soil which were mixed at a ratio of 1:1, and then, barnyardrass (Echinochloa crusgalli), large crabgrass (Digitaria sanguinalis), blackgrass (Alopecurus myosuroides), and annual bluegrass (Poa annua), which are grass weeds, were seeded thereto. In a pot that was prepared as described above, seeds of corn, soybean, cotton, wheat, and rice were seeded. The pots were irrigated, and one day after, chemicals were sprayed thereto. The spraying was performed by using a track sprayer (R&D Sprayer, USA) equipped with a Teejet 8002 (Spraying Systems Co., USA) nozzle, and a spraying amount was adjusted at 300 L/ha. A spraying solution was prepared by dissolving test materials or references in acetone and adding the same amount of 0.2%(v/v) tween 20 aqueous solution thereto. Application rates were 500, 250, 125, and 62.5 g/ha. The pots were placed in a greenhouse in which during day, the temperature was maintained at a temperature of 25 to 30° C., and during night, the temperature was maintained at a temperature of 15 to 25° C., and the pots were periodically irrigated. Four weeks after the spraying the test materials or References, effects and phytotoxicity of the respective weeds and crops were evaluated in a scale of 0 to 10 (0: no effects, 10: complete death), and results thereof are shown in Table 4 below.

Poa annua [2] = experiment: Post-emergence treatment, herbicidal efficacy on annual bluegrass; details: 4 weeks after spraying, scale 0 to 10
Procedure: as §1
(§2) Pots containing crops and weeds were prepared in the same manner as in Example 7, and then, in the second week in which crops and weeds entered into about 3 leaf stage, the test materials and the references were sprayed thereto in the same manner as described above. The rates were 1,000, 500, 250, and 125 g/ha. Four weeks after the spraying of the test materials or the references, herbicidal efficacy and phytotoxicity to the respective weeds and crops were evaluated in a scale of 0 to 10 (0: no effects, 10: complete death).

Corn [3] = experiment: Post-emergence treatment, phytotoxicity to corn; details: post-emergence (about 3 leaf stage), 1,000 g/ha, 4 weeks after spraying, scale 0 to 10 (0: no effects, 10: complete death)
Procedure: as §1, §2

Poa annua [4] = experiment: Pre-emergence treatment, herbicidal efficacy on annual bluegrass; details: 4 weeks after spraying, scale 0 to 10
Procedure: as §1

Alopecurus myosuroides [5] = experiment: Pre-emergence treatment, herbicidal efficacy on blackgrass; details: 4 weeks after spraying, scale 0 to 10
Procedure: as §1

Soybean [6] = experiment: Post-emergence treatment, phytotoxicity to soybean; details: post-emergence (about 3 leaf stage), 1,000 g/ha, 4 weeks after spraying, scale 0 to 10 (0: no effects, 10: complete death)
Procedure: as §1, §2

Wheat [7] = experiment: Post-emergence treatment, phytotoxicity to wheat; details: post-emergence (about 3 leaf stage), 1,000 g/ha, 4 weeks after spraying, scale 0 to 10 (0: no effects, 10: complete death)
Procedure: as §1, §2

Corn [8] = experiment: Pre-emergence treatment, phytotoxicity to corn; details: 500 g/ha, 4 weeks after spraying, scale 0 to 10 (0: no effects, 10: complete death)
Procedure: as §1

Cotton [9] = experiment: Pre-emergence treatment, phytotoxicity to cotton; details: 500 g/ha, 4 weeks after spraying, scale 0 to 10 (0: no effects, 10: complete death)
Procedure: as §1

Alopecurus myosuroides [10] = experiment: Post-emergence treatment, herbicidal efficacy on blackgrass; details: 4 weeks after spraying, scale 0 to 10
Procedure: as §1, §2

Rice [11] = experiment: Post-emergence treatment, phytotoxicity to rice; details: post-emergence (about 3 leaf stage), 1,000 g/ha, 4 weeks after spraying, scale 0 to 10 (0: no effects, 10: complete death)
Procedure: as §1, §2

Cotton [12] = experiment: Post-emergence treatment, phytotoxicity to cotton; details: post-emergence (about 3 leaf stage), 1,000 g/ha, 4 weeks after spraying, scale 0 to 10 (0: no effects, 10: complete death)
Procedure: as §1, §2

Rice [13] = experiment: Pre-emergence treatment, phytotoxicity to rice; details: 500 g/ha, 4 weeks after spraying, scale 0 to 10 (0: no effects, 10: complete death)
Procedure: as §1

Echinochloa crusgalli [14] = experiment: Post-emergence treatment, herbicidal efficacy on barnyardgrass; details: 4 weeks after spraying, scale 0 to 10
Procedure: as §1, §2

Soybean [15] = experiment: Pre-emergence treatment, phytotoxicity to soybean; details: 500 g/ha, 4 weeks after spraying, scale 0 to 10 (0: no effects, 10: complete death)
Procedure: as §1

Digitaria sanguinalis [16] = experiment: Post-emergence treatment, herbicidal efficacy on large crabgrass; details: 4 weeks after spraying, scale 0 to 10
Procedure: as §1, §2

Echinochloa crusgalli [17] = experiment: Pre-emergence treatment, herbicidal efficacy on barnyardgrass; details: 4 weeks after spraying
Procedure: as §1

Wheat [18] = experiment: Pre-emergence treatment, phytotoxicity to wheat; details: 500 g/ha, 4 weeks after spraying, scale 0 to 10 (0: no effects, 10: complete death)
Procedure: as §1

[19] = 500 g/ha, scale 0 to 10 (0: no effects, 10: complete death)

CC1(COCc2c(F)cccc2Cl)CC(c2ccccc2Cl)=NO1 (stereo not drawn) [Reference B]
Herbicidal efficacy, Digitaria sanguinalis (Digitaria sanguinalis [1]; 62.5 g/ha): 0 | Herbicidal efficacy, Digitaria sanguinalis (Digitaria sanguinalis [1]; 125 g/ha): 4 | Herbicidal efficacy, Digitaria sanguinalis (Digitaria sanguinalis [1]; 250 g/ha): 8 | Herbicidal efficacy, Digitaria sanguinalis (Digitaria sanguinalis [1]; 500 g/ha): 9 | Herbicidal efficacy, Poa annua (Poa annua [2]; post-emergence, 125 g/ha): 0 | Herbicidal efficacy, Poa annua (Poa annua [2]; post-emergence, 250 g/ha): 1 | Herbicidal efficacy, Poa annua (Poa annua [2]; post-emergence, 500 g/ha): 4 | Herbicidal efficacy, Poa annua (Poa annua [2]; post-emergence, 1,000 g/ha): 6 | Phytotoxicity, Corn (Corn [3]): 0 | Herbicidal efficacy, Poa annua (Poa annua [4]; 62.5 g/ha): 2 | Herbicidal efficacy, Poa annua (Poa annua [4]; 125 g/ha): 4 | Herbicidal efficacy, Poa annua (Poa annua [4]; 250 g/ha): 8 | Herbicidal efficacy, Poa annua (Poa annua [4]; 500 g/ha): 10 | Herbicidal efficacy, Alopecurus myosuroides (Alopecurus myosuroides [5]; 62.5 g/ha): 0 | Herbicidal efficacy, Alopecurus myosuroides (Alopecurus myosuroides [5]; 125 g/ha): 0 | Herbicidal efficacy, Alopecurus myosuroides (Alopecurus myosuroides [5]; 250 g/ha): 3 | Herbicidal efficacy, Alopecurus myosuroides (Alopecurus myosuroides [5]; 500 g/ha): 10 | Phytotoxicity, Soybean (Soybean [6]): 2 | Phytotoxicity, Wheat (Wheat [7]): 0 | Phytotoxicity, Corn (Corn [8]): 0 | Phytotoxicity, Cotton (Cotton [9]): 0 | Herbicidal efficacy, Alopecurus myosuroides (Alopecurus myosuroides [10]; post-emergence, 125 g/ha): 0 | Herbicidal efficacy, Alopecurus myosuroides (Alopecurus myosuroides [10]; post-emergence, 250 g/ha): 0 | Herbicidal efficacy, Alopecurus myosuroides (Alopecurus myosuroides [10]; post-emergence, 500 g/ha): 0 | Herbicidal efficacy, Alopecurus myosuroides (Alopecurus myosuroides [10]; post-emergence, 1,000 g/ha): 3 | Phytotoxicity, Rice (Rice [11]): 0 | Phytotoxicity, Cotton (Cotton [12]): 0 | Phytotoxicity, Rice (Rice [13]): 0 | Herbicidal efficacy, Echinochloa crusgalli (Echinochloa crusgalli [14]; post-emergence, 125 g/ha): 0 | Herbicidal efficacy, Echinochloa crusgalli (Echinochloa crusgalli [14]; post-emergence, 250 g/ha): 0 | Herbicidal efficacy, Echinochloa crusgalli (Echinochloa crusgalli [14]; post-emergence, 500 g/ha): 1 | Herbicidal efficacy, Echinochloa crusgalli (Echinochloa crusgalli [14]; post-emergence, 1,000 g/ha): 7 | Phytotoxicity, Soybean (Soybean [15]): 0 | Herbicidal efficacy, Digitaria sanguinalis (Digitaria sanguinalis [16]; post-emergence, 125 g/ha): 0 | Herbicidal efficacy, Digitaria sanguinalis (Digitaria sanguinalis [16]; post-emergence, 250 g/ha): 5 | Herbicidal efficacy, Digitaria sanguinalis (Digitaria sanguinalis [16]; post-emergence, 500 g/ha): 6 | Herbicidal efficacy, Digitaria sanguinalis (Digitaria sanguinalis [16]; post-emergence, 1,000 g/ha): 8 | Herbicidal efficacy, Echinochloa crusgalli (Echinochloa crusgalli [17]; 62.5 g/ha, scale 0 to 10): 2 | Herbicidal efficacy, Echinochloa crusgalli (Echinochloa crusgalli [17]; 125 g/ha, scale 0 to 10): 5 | Herbicidal efficacy, Echinochloa crusgalli (Echinochloa crusgalli [17]; 250 g/ha, scale 0 to 10): 7 | Herbicidal efficacy, Echinochloa crusgalli (Echinochloa crusgalli [17]; [19]): 10 | Phytotoxicity, Wheat (Wheat [18]): 0

Cc1ccc(C2=NOC(C)(COCc3c(F)cccc3F)C2)cc1 (stereo not drawn) [Reference G]
Herbicidal efficacy, Digitaria sanguinalis (Digitaria sanguinalis [1]; 62.5 g/ha): 1 | Herbicidal efficacy, Digitaria sanguinalis (Digitaria sanguinalis [1]; 125 g/ha): 4 | Herbicidal efficacy, Digitaria sanguinalis (Digitaria sanguinalis [1]; 250 g/ha): 8 | Herbicidal efficacy, Digitaria sanguinalis (Digitaria sanguinalis [1]; 500 g/ha): 10 | Herbicidal efficacy, Poa annua (Poa annua [2]; post-emergence, 125 g/ha): 0 | Herbicidal efficacy, Poa annua (Poa annua [2]; post-emergence, 250 g/ha): 1 | Herbicidal efficacy, Poa annua (Poa annua [2]; post-emergence, 500 g/ha): 4 | Herbicidal efficacy, Poa annua (Poa annua [2]; post-emergence, 1,000 g/ha): 6 | Phytotoxicity, Corn (Corn [3]): 0 | Herbicidal efficacy, Poa annua (Poa annua [4]; 62.5 g/ha): 1 | Herbicidal efficacy, Poa annua (Poa annua [4]; 125 g/ha): 4 | Herbicidal efficacy, Poa annua (Poa annua [4]; 250 g/ha): 8 | Herbicidal efficacy, Poa annua (Poa annua [4]; 500 g/ha): 9 | Herbicidal efficacy, Alopecurus myosuroides (Alopecurus myosuroides [5]; 62.5 g/ha): 0 | Herbicidal efficacy, Alopecurus myosuroides (Alopecurus myosuroides [5]; 125 g/ha): 0 | Herbicidal efficacy, Alopecurus myosuroides (Alopecurus myosuroides [5]; 250 g/ha): 0 | Herbicidal efficacy, Alopecurus myosuroides (Alopecurus myosuroides [5]; 500 g/ha): 3 | Phytotoxicity, Soybean (Soybean [6]): 2 | Phytotoxicity, Wheat (Wheat [7]): 0 | Phytotoxicity, Corn (Corn [8]): 0 | Phytotoxicity, Cotton (Cotton [9]): 0 | Herbicidal efficacy, Alopecurus myosuroides (Alopecurus myosuroides [10]; post-emergence, 125 g/ha): 0 | Herbicidal efficacy, Alopecurus myosuroides (Alopecurus myosuroides [10]; post-emergence, 250 g/ha): 0 | Herbicidal efficacy, Alopecurus myosuroides (Alopecurus myosuroides [10]; post-emergence, 500 g/ha): 2 | Herbicidal efficacy, Alopecurus myosuroides (Alopecurus myosuroides [10]; post-emergence, 1,000 g/ha): 3 | Phytotoxicity, Rice (Rice [11]): 0 | Phytotoxicity, Cotton (Cotton [12]): 0 | Phytotoxicity, Rice (Rice [13]): 0 | Herbicidal efficacy, Echinochloa crusgalli (Echinochloa crusgalli [14]; post-emergence, 125 g/ha): 0 | Herbicidal efficacy, Echinochloa crusgalli (Echinochloa crusgalli [14]; post-emergence, 250 g/ha): 2 | Herbicidal efficacy, Echinochloa crusgalli (Echinochloa crusgalli [14]; post-emergence, 500 g/ha): 5 | Herbicidal efficacy, Echinochloa crusgalli (Echinochloa crusgalli [14]; post-emergence, 1,000 g/ha): 6 | Phytotoxicity, Soybean (Soybean [15]): 0 | Herbicidal efficacy, Digitaria sanguinalis (Digitaria sanguinalis [16]; post-emergence, 125 g/ha): 0 | Herbicidal efficacy, Digitaria sanguinalis (Digitaria sanguinalis [16]; post-emergence, 250 g/ha): 0 | Herbicidal efficacy, Digitaria sanguinalis (Digitaria sanguinalis [16]; post-emergence, 500 g/ha): 4 | Herbicidal efficacy, Digitaria sanguinalis (Digitaria sanguinalis [16]; post-emergence, 1,000 g/ha): 6 | Herbicidal efficacy, Echinochloa crusgalli (Echinochloa crusgalli [17]; 62.5 g/ha, scale 0 to 10): 0 | Herbicidal efficacy, Echinochloa crusgalli (Echinochloa crusgalli [17]; 125 g/ha, scale 0 to 10): 3 | Herbicidal efficacy, Echinochloa crusgalli (Echinochloa crusgalli [17]; 250 g/ha, scale 0 to 10): 7 | Herbicidal efficacy, Echinochloa crusgalli (Echinochloa crusgalli [17]; [19]): 10 | Phytotoxicity, Wheat (Wheat [18]): 0

CC1(COCc2c(F)cccc2F)CC(c2ccccc2Br)=NO1 (stereo not drawn) [Compound 3, 3-(2-bromophenyl)-5-((2,6-difluorobenzyloxy)methyl)-5-methyl-4,5-dihydroisoxazole]
Herbicidal efficacy, Digitaria sanguinalis (Digitaria sanguinalis [1]; 62.5 g/ha): 10 | Herbicidal efficacy, Digitaria sanguinalis (Digitaria sanguinalis [1]; 125 g/ha): 10 | Herbicidal efficacy, Digitaria sanguinalis (Digitaria sanguinalis [1]; 250 g/ha): 10 | Herbicidal efficacy, Digitaria sanguinalis (Digitaria sanguinalis [1]; 500 g/ha): 10 | Herbicidal efficacy, Poa annua (Poa annua [4]; 62.5 g/ha): 4 | Herbicidal efficacy, Poa annua (Poa annua [4]; 125 g/ha): 7 | Herbicidal efficacy, Poa annua (Poa annua [4]; 250 g/ha): 8 | Herbicidal efficacy, Poa annua (Poa annua [4]; 500 g/ha): 10 | Herbicidal efficacy, Alopecurus myosuroides (Alopecurus myosuroides [5]; 62.5 g/ha): 4 | Herbicidal efficacy, Alopecurus myosuroides (Alopecurus myosuroides [5]; 125 g/ha): 4 | Herbicidal efficacy, Alopecurus myosuroides (Alopecurus myosuroides [5]; 250 g/ha): 5 | Herbicidal efficacy, Alopecurus myosuroides (Alopecurus myosuroides [5]; 500 g/ha): 7 | Phytotoxicity, Corn (Corn [8]): 2 | Phytotoxicity, Cotton (Cotton [9]): 0 | Phytotoxicity, Rice (Rice [13]): 0 | Phytotoxicity, Soybean (Soybean [15]): 0 | Herbicidal efficacy, Echinochloa crusgalli (Echinochloa crusgalli [17]; 62.5 g/ha, scale 0 to 10): 10 | Herbicidal efficacy, Echinochloa crusgalli (Echinochloa crusgalli [17]; 125 g/ha, scale 0 to 10): 10 | Herbicidal efficacy, Echinochloa crusgalli (Echinochloa crusgalli [17]; 250 g/ha, scale 0 to 10): 10 | Herbicidal efficacy, Echinochloa crusgalli (Echinochloa crusgalli [17]; [19]): 10 | Phytotoxicity, Wheat (Wheat [18]): 0

Source: patent US9439432B2, “Phenylisoxazoline-based compound having herbicidal activity and use thereof” (MOGHU RESEARCH CENTER LTD, priority 2011, dated 2016)
